PubChem BioAssay AID248 (DTP/NCI, 2004)
“And” between values parts separate entries of the source, which are not always exact repeats. Equal values may be shown once. Toxic doses and inconclusive results are not listed.

System: L1210 leukemia ip in BDF1 mice, survival T/C
Experiment: NCI In Vivo Anticancer Drug Screen. Data for tumor model L1210 Leukemia (intraperitoneal) in B6D2F1 (BDF1) mice
Settings: endpoint: mean survival time, higher = longer survival
How it was run: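 Mice bearing the transplanted tumor received compound or vehicle. Survival of the treated group was divided by that of the vehicle-treated control group to give the ratio.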

[1] = dose: 100.0 mg/kg/injection, schedule: Q04DX003 (ip), vehicle: Klucel (hydroxypropylcellulose) (HPC)
[2] = dose: 200.0 mg/kg/injection, schedule: Q04DX003 (ip), vehicle: Klucel (hydroxypropylcellulose) (HPC)
[3] = dose: 400.0 mg/kg/injection, schedule: Q04DX003 (ip), vehicle: Klucel (hydroxypropylcellulose) (HPC)
[4] = dose: 100.0 mg/kg/injection, schedule: Q01DX009 (ip), vehicle: Klucel (hydroxypropylcellulose) (HPC)
[5] = dose: 200.0 mg/kg/injection, schedule: Q01DX009 (ip), vehicle: Klucel (hydroxypropylcellulose) (HPC)
[6] = dose: 400.0 mg/kg/injection, schedule: Q01DX009 (ip), vehicle: Klucel (hydroxypropylcellulose) (HPC)
[7] = dose: 25.0 mg/kg/injection, schedule: Q01DX009 (ip), vehicle: Klucel (hydroxypropylcellulose) (HPC)
[8] = dose: 50.0 mg/kg/injection, schedule: Q01DX009 (ip), vehicle: Klucel (hydroxypropylcellulose) (HPC)
[9] = dose: 100.0 mg/kg/injection, schedule: Q04DX002 (ip), vehicle: Klucel (hydroxypropylcellulose) (HPC)
[10] = dose: 200.0 mg/kg/injection, schedule: Q04DX002 (ip), vehicle: Klucel (hydroxypropylcellulose) (HPC)
[11] = dose: 400.0 mg/kg/injection, schedule: Q04DX002 (ip), vehicle: Klucel (hydroxypropylcellulose) (HPC)
[12] = dose: 100.0 mg/kg/injection, schedule: Q01DX001 (ip), vehicle: saline with Tween-80
[13] = dose: 200.0 mg/kg/injection, schedule: Q01DX001 (ip), vehicle: saline with Tween-80
[14] = dose: 100.0 mg/kg/injection, schedule: Q01DX009 (ip), vehicle: saline with Tween-80
[15] = dose: 100.0 mg/kg/injection, schedule: Q04DX003 (ip), vehicle: other
[16] = dose: 200.0 mg/kg/injection, schedule: Q04DX003 (ip), vehicle: other
[17] = dose: 100.0 mg/kg/injection, schedule: Q01DX001 (ip), vehicle: saline
[18] = dose: 200.0 mg/kg/injection, schedule: Q01DX001 (ip), vehicle: saline
[19] = dose: 50.0 mg/kg/injection, schedule: Q04DX002 (ip), vehicle: Klucel (hydroxypropylcellulose) (HPC)

CC12CCC(O)(CC1)CC2=O
T/C (dose: 75.0 mg/kg/injection, schedule: Q04DX002 (ip), vehicle: saline): 95 % of control
T/C (dose: 150.0 mg/kg/injection, schedule: Q04DX002 (ip), vehicle: saline): 95 % of control
T/C (dose: 300.0 mg/kg/injection, schedule: Q04DX002 (ip), vehicle: saline): 103 % of control

Cc1ccc(C(=O)O)cc1[N+](=O)[O-]
T/C [1]: 95 % of control
T/C [2]: 92 % of control
T/C [3]: 103 % of control

CCN(CC)C(=S)Nc1ccc([N+](=O)[O-])cc1
T/C [4]: 104 % of control
T/C [5]: 86 % of control
T/C [6]: 100 % of control

ClC1=C(Cl)C(Cl)(Cl)C(Cl)(Cl)C1(Cl)Cl
T/C (dose: 12.5 mg/kg/injection, schedule: Q01DX009 (ip), vehicle: saline): 99 % of control
T/C [7]: 92 % of control
T/C (dose: 25.0 mg/kg/injection, schedule: Q01DX009 (ip), vehicle: saline): 95 % of control
T/C [8]: 96 % of control
T/C (dose: 50.0 mg/kg/injection, schedule: Q01DX009 (ip), vehicle: saline): 97 % of control
T/C [4]: 87 % of control
T/C [1]: 104 % of control
T/C [2]: 96 % of control
T/C [3]: 102 % of control

O=C(O)c1c(O)cc(=O)oc1-c1ccc(Cl)cc1Cl
T/C (dose: 75.0 mg/kg/injection, schedule: Q01DX001 (ip), vehicle: saline): 101 % of control
T/C (dose: 150.0 mg/kg/injection, schedule: Q01DX001 (ip), vehicle: saline): 101 % of control
T/C (dose: 300.0 mg/kg/injection, schedule: Q01DX001 (ip), vehicle: saline): 106 % of control

CCCCCCCCCC(O)CC (stereo not drawn)
T/C [4]: 106 % of control
T/C [1]: 103 % of control
T/C [5]: 102 % of control
T/C [2]: 103 % of control
T/C [6]: 105 % of control
T/C [3]: 103 % of control

COc1cc(NC(=O)Nc2ccc(F)c(Cl)c2)c(OC)cc1Cl
T/C [9]: 100 % of control
T/C [10]: 93 % of control
T/C [11]: 86 % of control

Cc1ccc(S(=O)(=O)N(CCCc2c(C)nc(N)nc2NCCCc2ccccc2)c2ccccc2)cc1
T/C (dose: 50.0 mg/kg/injection, schedule: Q01DX001 (ip), vehicle: saline with Tween-80): 98 % of control
T/C [12]: 98 % of control
T/C [13]: 90 % of control

CCN(CC)CCOC(=O)c1[nH]cnc1/N=N/N(C)C1CCCCC1
T/C (dose: 100.0 mg/kg/injection, schedule: Q01DX001 (ip), vehicle: other): 104 % of control
T/C (dose: 200.0 mg/kg/injection, schedule: Q01DX001 (ip), vehicle: other): 93 % of control

C=CCCC1CC(C(C)C)CC2(C1)OCCO2 (stereo not drawn)
T/C (dose: 50.0 mg/kg/injection, schedule: Q01DX009 (ip), vehicle: saline with Tween-80): 96 % of control
T/C [14]: 96 % of control

CCOC(=O)C(O)C(C#N)c1ccccc1 (stereo not drawn)
T/C (dose: 100.0 mg/kg/injection, schedule: Q01DX009 (ip), vehicle: other): 94 % of control
T/C [15]: 118 % of control
T/C (dose: 200.0 mg/kg/injection, schedule: Q01DX009 (ip), vehicle: other): 106 % of control
T/C [16]: 101 % of control
T/C (dose: 400.0 mg/kg/injection, schedule: Q01DX009 (ip), vehicle: other): 95 % of control
T/C (dose: 400.0 mg/kg/injection, schedule: Q04DX003 (ip), vehicle: other): 105 % of control

O=S1(=O)C2C=CCC1C(Cl)CC2 (stereo not drawn)
T/C (dose: 12.5 mg/kg/injection, schedule: Q01DX001 (ip), vehicle: Klucel (hydroxypropylcellulose) (HPC)): 97 % of control
T/C (dose: 12.5 mg/kg/injection, schedule: Q01DX009 (ip), vehicle: Klucel (hydroxypropylcellulose) (HPC)): 92 % of control
T/C (dose: 25.0 mg/kg/injection, schedule: Q01DX001 (ip), vehicle: Klucel (hydroxypropylcellulose) (HPC)): 95 % of control
T/C [7]: 89 % of control
T/C (dose: 50.0 mg/kg/injection, schedule: Q01DX001 (ip), vehicle: Klucel (hydroxypropylcellulose) (HPC)): 93 % of control

COc1cc2ccnc(C=O)c2cc1OC
T/C (dose: 50.0 mg/kg/injection, schedule: Q01DX001 (ip), vehicle: saline): 96 % of control
T/C [17]: 95 % of control
T/C [18]: 101 % of control

OCC1OC(n2c(Cl)nc3ccccc32)C(O)C1O (stereo not drawn)
T/C [17]: 97 % of control
T/C [18]: 103 % of control
T/C (dose: 400.0 mg/kg/injection, schedule: Q01DX001 (ip), vehicle: saline): 103 % of control

O=C(CNC(=O)c1ccccc1)N/N=C/c1c(O)ccc2ccccc12
T/C [14]: 95 % of control
T/C (dose: 200.0 mg/kg/injection, schedule: Q01DX009 (ip), vehicle: saline with Tween-80): 95 % of control
T/C (dose: 400.0 mg/kg/injection, schedule: Q01DX009 (ip), vehicle: saline with Tween-80): 97 % of control

O=c1[nH]c2ccsc2c(=O)n1O
T/C (dose: 100.0 mg/kg/injection, schedule: Q04DX003 (ip), vehicle: saline): 102 % of control
T/C (dose: 200.0 mg/kg/injection, schedule: Q04DX003 (ip), vehicle: saline): 97 % of control

CC(C)CC(CO)Cc1nc2ccccc2[nH]1 (stereo not drawn)
T/C [19]: 95 % of control
T/C [9]: 95 % of control
T/C (dose: 100.0 mg/kg/injection, schedule: Q04DX002 (ip), vehicle: other): 105 % of control
T/C [15]: 97 % of control
T/C [10]: 93 % of control and 92 % of control
T/C (dose: 200.0 mg/kg/injection, schedule: Q04DX002 (ip), vehicle: other): 91 % of control and 92 % of control
T/C [16]: 94 % of control
T/C [11]: 105 % of control
T/C (dose: 400.0 mg/kg/injection, schedule: Q04DX002 (ip), vehicle: other): 102 % of control

O=c1[nH]cnc2sc3c(c12)CCCC3
T/C (dose: 100.0 mg/kg/injection, schedule: Q01DX009 (ip), vehicle: saline sonified): 94 % of control
T/C (dose: 100.0 mg/kg/injection, schedule: Q04DX003 (ip), vehicle: saline sonified): 92 % of control
T/C (dose: 200.0 mg/kg/injection, schedule: Q01DX009 (ip), vehicle: saline sonified): 116 % of control
T/C (dose: 200.0 mg/kg/injection, schedule: Q04DX003 (ip), vehicle: saline sonified): 98 % of control
T/C (dose: 400.0 mg/kg/injection, schedule: Q01DX009 (ip), vehicle: saline sonified): 100 % of control
T/C (dose: 400.0 mg/kg/injection, schedule: Q04DX003 (ip), vehicle: saline sonified): 101 % of control

CCc1ccc(/C(C#N)=C/C=C/c2ccccc2)cc1
T/C [9]: 112 % of control
T/C [10]: 102 % of control
T/C [11]: 97 % of control

COc1ccc(NC(=O)Nc2ccccc2)cc1
T/C [19]: 105 % of control
T/C [9]: 98 % of control and 102 % of control
T/C [10]: 99 % of control
T/C [11]: 91 % of control

Nc1cccc(CNC(=O)COc2ccc(Cl)cc2C(=O)O)c1
T/C [12]: 98 % of control
T/C [13]: 95 % of control
T/C (dose: 400.0 mg/kg/injection, schedule: Q01DX001 (ip), vehicle: saline with Tween-80): 103 % of control

C/C=C/C(C#N)Nc1ccccc1C(N)=O (stereo not drawn)
T/C (dose: 12.5 mg/kg/injection, schedule: Q04DX003 (ip), vehicle: Klucel (hydroxypropylcellulose) (HPC)): 91 % of control
T/C [7]: 104 % of control
T/C (dose: 25.0 mg/kg/injection, schedule: Q04DX003 (ip), vehicle: Klucel (hydroxypropylcellulose) (HPC)): 96 % of control
T/C [8]: 103 % of control
T/C (dose: 50.0 mg/kg/injection, schedule: Q04DX003 (ip), vehicle: Klucel (hydroxypropylcellulose) (HPC)): 102 % of control
T/C [4]: 95 % of control
T/C [1]: 94 % of control

C1CCC2C(C1)CC1CCCCC12 (stereo not drawn)
T/C (dose: 100.0 mg/kg/injection, schedule: Q04DX002 (ip), vehicle: saline with Tween-80): 101 % of control
T/C (dose: 200.0 mg/kg/injection, schedule: Q04DX002 (ip), vehicle: saline with Tween-80): 105 % of control
T/C (dose: 400.0 mg/kg/injection, schedule: Q04DX002 (ip), vehicle: saline with Tween-80): 101 % of control

CC(C)CCOP(=S)(N1CC1)N1CC1
T/C (dose: 2.0 mg/kg/injection, schedule: Q01DX015 (ip), vehicle: carboxymethylcellulose (CMC)): 101 % of control
T/C (dose: 4.0 mg/kg/injection, schedule: Q01DX015 (ip), vehicle: carboxymethylcellulose (CMC)): 103 % of control
T/C (dose: 44.4 mg/kg/injection, schedule: Q01DX001 (ip), vehicle: carboxymethylcellulose (CMC)): 117 % of control
T/C (dose: 100.0 mg/kg/injection, schedule: Q01DX001 (ip), vehicle: carboxymethylcellulose (CMC)): 164 % of control
